± gives the standard deviation of the averaged measurements.
Columns and labels:
Experiment in all cases: normalised growth rate inhibition (GR value) relative to DMSO control (GR (1 = untreated growth, 0 = cytostasis, <0 = cytotoxic)); higher = less growth inhibition
Settings in all cases: 72 h
[1] = tested on: BT20
Experimental: (§1)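 Breast cancer cell lines (BT-20, Hs 578T, MCF 10A, MCF7, MDA-MB-231, SK-BR-3) were plated in 384-well plates and treated 24 h later with drugs at six concentrations (0.04-10 µM). Viable cells were counted by Hoechst/dead-cell-stain imaging at 0 and 72 h. Counts were normalised to DMSO controls on the same plate to give the relative cell count and the growth-rate inhibition (GR) value; technical plate triplicates were averaged for each biological replicate.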

[2] = tested on: MCF10A
Experimental: as §1

[3] = tested on: MCF7
Experimental: as §1

[4] = tested on: MDAMB231
Experimental: as §1

[5] = tested on: HS578T
Experimental: as §1

[6] = tested on: SKBR3
Experimental: as §1

Compound | normalised growth rate inhibition ([1]; 0.04 µM) | normalised growth rate inhibition ([1]; 0.12 µM) | normalised growth rate inhibition ([1]; 0.37 µM) | normalised growth rate inhibition ([1]; 1.11 µM) | normalised growth rate inhibition ([1]; 3.33 µM) | normalised growth rate inhibition ([1]; 10 µM) | normalised growth rate inhibition ([2]; 0.04 µM) | normalised growth rate inhibition ([2]; 0.12 µM) | normalised growth rate inhibition ([2]; 0.37 µM) | normalised growth rate inhibition ([2]; 1.11 µM) | normalised growth rate inhibition ([2]; 3.33 µM) | normalised growth rate inhibition ([2]; 10 µM) | normalised growth rate inhibition ([3]; 0.04 µM) | normalised growth rate inhibition ([3]; 0.12 µM) | normalised growth rate inhibition ([3]; 0.37 µM) | normalised growth rate inhibition ([3]; 1.11 µM) | normalised growth rate inhibition ([3]; 3.33 µM) | normalised growth rate inhibition ([3]; 10 µM) | normalised growth rate inhibition ([4]; 0.04 µM) | normalised growth rate inhibition ([4]; 0.12 µM) | normalised growth rate inhibition ([4]; 0.37 µM) | normalised growth rate inhibition ([4]; 1.11 µM) | normalised growth rate inhibition ([4]; 3.33 µM) | normalised growth rate inhibition ([4]; 10 µM) | normalised growth rate inhibition ([5]; 0.04 µM) | normalised growth rate inhibition ([5]; 0.12 µM) | normalised growth rate inhibition ([5]; 0.37 µM) | normalised growth rate inhibition ([5]; 1.11 µM) | normalised growth rate inhibition ([5]; 3.33 µM) | normalised growth rate inhibition ([5]; 10 µM) | normalised growth rate inhibition ([6]; 0.04 µM) | normalised growth rate inhibition ([6]; 0.12 µM) | normalised growth rate inhibition ([6]; 0.37 µM) | normalised growth rate inhibition ([6]; 1.11 µM) | normalised growth rate inhibition ([6]; 3.33 µM) | normalised growth rate inhibition ([6]; 10 µM)
CN(c1ccccc1CNc1nc(Nc2ccc3c(c2)CC(=O)N3)ncc1C(F)(F)F)S(C)(=O)=O | 0.902 ± 0.043 | 0.763 ± 0.035 | 0.414 ± 0.12 | 0.121 ± 0.12 | 0.0389 ± 0.12 | -0.19 ± 0.21 | 0.744 ± 0.029 | 0.501 ± 0.056 | 0.233 ± 0.087 | 0.106 ± 0.019 | 0.0578 ± 0.032 | -0.154 ± 0.16 | 0.742 ± 0.065 | 0.471 ± 0.1 | 0.184 ± 0.078 | 0.0628 ± 0.026 | -0.0235 ± 0.037 | -0.28 ± 0.03 | 0.913 ± 0.058 | 0.78 ± 0.082 | 0.49 ± 0.2 | 0.241 ± 0.13 | 0.11 ± 0.13 | -0.197 ± 0.22 | 0.761 ± 0.021 | 0.694 ± 0.042 | 0.537 ± 0.063 | 0.27 ± 0.068 | 0.181 ± 0.076 | -0.0957 ± 0.088 | 1.04 ± 0.024 | 0.653 ± 0.081 | 0.306 ± 0.017 | 0.0323 ± 0.071 | -0.0178 ± 0.071 | -0.141 ± 0.18
O=C1NC(=O)/C(=C/c2ccc3nccc(-c4ccncc4)c3c2)S1 | 0.934 ± 0.086 | 0.638 ± 0.15 | 0.192 ± 0.15 | -0.221 ± 0.082 | -0.352 ± 0.1 | -0.44 ± 0.1 | 0.987 ± 0.039 | 0.887 ± 0.11 | 0.608 ± 0.17 | 0.143 ± 0.074 | -0.0425 ± 0.058 | -0.115 ± 0.059 | 0.983 ± 0.059 | 0.844 ± 0.057 | 0.581 ± 0.08 | 0.224 ± 0.075 | -0.0358 ± 0.081 | -0.203 ± 0.081 | 1.03 ± 0.083 | 0.992 ± 0.052 | 0.912 ± 0.049 | 0.513 ± 0.18 | 0.131 ± 0.25 | -0.0544 ± 0.27 | 0.948 ± 0.035 | 0.835 ± 0.057 | 0.647 ± 0.083 | 0.372 ± 0.044 | 0.0713 ± 0.13 | -0.118 ± 0.12 | 0.987 ± 0.084 | 0.81 ± 0.14 | 0.541 ± 0.15 | 0.0268 ± 0.1 | -0.291 ± 0.12 | -0.421 ± 0.12
CCn1c(-c2nonc2N)nc2c(C#CC(C)(C)O)ncc(OC[C@H]3CCCNC3)c21 | 0.8181 ± 0.0049 | 0.779 ± 0.062 | 0.636 ± 0.11 | 0.521 ± 0.12 | 0.453 ± 0.062 | 0.371 ± 0.047 | 0.989 ± 0.029 | 0.976 ± 0.024 | 0.937 ± 0.039 | 0.873 ± 0.034 | 0.872 ± 0.039 | 0.891 ± 0.042 | 0.6 ± 0.073 | 0.499 ± 0.17 | 0.42 ± 0.13 | 0.374 ± 0.096 | 0.361 ± 0.09 | 0.312 ± 0.09 | 0.86 ± 0.088 | 0.904 ± 0.021 | 0.906 ± 0.021 | 0.94 ± 0.026 | 1.01 ± 0.032 | 0.869 ± 0.08 | 0.846 ± 0.058 | 0.798 ± 0.075 | 0.726 ± 0.084 | 0.713 ± 0.11 | 0.717 ± 0.13 | 0.728 ± 0.12 | 0.578 ± 0.064 | 0.555 ± 0.035 | 0.556 ± 0.038 | 0.571 ± 0.039 | 0.62 ± 0.032 | 0.658 ± 0.065
Cc1cnc(Nc2ccc(OCCN3CCCC3)cc2)nc1Nc1cccc(S(=O)(=O)NC(C)(C)C)c1 | 1.04 ± 0.029 | 0.969 ± 0.0097 | 0.934 ± 0.022 | 0.823 ± 0.031 | 0.629 ± 0.024 | -0.141 ± 0.14 | 0.989 ± 0.019 | 0.964 ± 0.018 | 0.938 ± 0.028 | 0.876 ± 0.041 | 0.512 ± 0.19 | 0.0536 ± 0.034 | 1.02 ± 0.06 | 0.96 ± 0.079 | 0.813 ± 0.11 | 0.545 ± 0.23 | 0.0996 ± 0.12 | -0.272 ± 0.058 | 1.01 ± 0.074 | 0.934 ± 0.075 | 0.877 ± 0.11 | 0.643 ± 0.19 | 0.104 ± 0.19 | -0.306 ± 0.15 | 1.01 ± 0.019 | 0.986 ± 0.019 | 0.887 ± 0.03 | 0.655 ± 0.066 | 0.258 ± 0.1 | -0.184 ± 0.17 | 1.07 ± 0.082 | 0.997 ± 0.013 | 0.907 ± 0.023 | 0.766 ± 0.065 | 0.501 ± 0.11 | -0.201 ± 0.095
